According to ChEMBL document CHEMBL1201862, “PubChem BioAssay data set” (2004):
Active and inactive are the calls of the source.

Legend:
[1] = reduction of Shn3 3'UTR-driven luciferase in osteoblasts – cell-based, Clone20 osteoblasts, firefly luciferase, cherry-picked, dose response (AID 624132); assay type: functional;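 also: firefly luciferase luminescence from reporter carrying the Shn3 3'UTR in osteoblasts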
[2] = loss of viability in HepG2 cells – cell-based, CellTiter-Glo, cherry-picked, cytotoxicity control for Shn3 inhibitor project, dose response (AID 624134); assay type: functional
[3] = non-specific 3'UTR reporter inhibition in Clone20-Shn3RL – cell-based, Renilla luciferase, cherry-picked, counter-screen for Shn3 inhibitor project, dose response (AID 624133); assay type: functional
[4] = target: T1, High affinity choline transporter 1 (Homo sapiens, UniProt Q9GZV3); experiment: human choline transporter potentiators, potency – cell-based, 10-point CRC, membrane potential dye, dose response (AID 602376); assay type: functional
T1 sequence (Q9GZV3 whole entry): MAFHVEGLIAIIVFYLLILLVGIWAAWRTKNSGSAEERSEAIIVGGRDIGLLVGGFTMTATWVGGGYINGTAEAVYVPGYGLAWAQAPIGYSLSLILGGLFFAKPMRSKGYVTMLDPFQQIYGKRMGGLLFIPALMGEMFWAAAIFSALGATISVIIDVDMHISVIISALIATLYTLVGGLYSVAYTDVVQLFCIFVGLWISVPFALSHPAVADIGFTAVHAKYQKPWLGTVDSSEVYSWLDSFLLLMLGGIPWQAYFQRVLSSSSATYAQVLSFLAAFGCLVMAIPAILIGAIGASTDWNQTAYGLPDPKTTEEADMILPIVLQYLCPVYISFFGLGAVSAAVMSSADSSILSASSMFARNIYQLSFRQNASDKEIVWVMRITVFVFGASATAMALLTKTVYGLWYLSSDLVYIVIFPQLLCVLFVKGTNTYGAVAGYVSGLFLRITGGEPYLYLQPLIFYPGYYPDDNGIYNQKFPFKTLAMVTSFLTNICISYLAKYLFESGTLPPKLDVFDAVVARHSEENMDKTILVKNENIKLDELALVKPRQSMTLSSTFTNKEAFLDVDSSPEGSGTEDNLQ

Escherichia coli = experiment: microbe, parasite or virus in culture
HEK293 [5] = experiment: inhibition of NOD1-driven NF-kB reporter – cell-based, luminescence, uHTS, primary screen (AID 1578); assay type: functional; conditions: Homo sapiens
HEK293 [6] = experiment: cells; assay type: functional, cell-based; conditions: Homo sapiens
HEK293 [7] = experiment: cells; assay type: functional, cell-based; conditions: Homo sapiens; remark: listed apart in the source
[8] = target: Nucleotide-binding oligomerization domain-containing protein 2 (Homo sapiens, UniProt Q9HC29); experiment: inhibition of NOD2-driven NF-kB reporter – cell-based, luminescence, uHTS, HEK293 (AID 1566); assay type: functional
HEK293 [9] = experiment: NOD2 signaling inhibitors in MDP-stimulated cells, cell-based, uHTS, luminescence (AID 2001); assay type: functional; conditions: Homo sapiens
HEK293 [10] = experiment: cells; assay type: functional, cell-based; conditions: Homo sapiens; remark: listed apart in the source
Tumor necrosis factor = Tumor necrosis factor (Homo sapiens, UniProt P01375); experiment: analog potency on TNFa NF-kB signaling – cell-based, revised, SAR follow-up (AID 2337); assay type: functional
[11] = target: T2, Nucleotide-binding oligomerization domain-containing protein 1 (Homo sapiens, UniProt Q9Y239); experiment: blockers of NOD1 pathway activity – revised, SAR follow-up (AID 2333); assay type: functional
T2 sequence (Q9Y239 whole entry): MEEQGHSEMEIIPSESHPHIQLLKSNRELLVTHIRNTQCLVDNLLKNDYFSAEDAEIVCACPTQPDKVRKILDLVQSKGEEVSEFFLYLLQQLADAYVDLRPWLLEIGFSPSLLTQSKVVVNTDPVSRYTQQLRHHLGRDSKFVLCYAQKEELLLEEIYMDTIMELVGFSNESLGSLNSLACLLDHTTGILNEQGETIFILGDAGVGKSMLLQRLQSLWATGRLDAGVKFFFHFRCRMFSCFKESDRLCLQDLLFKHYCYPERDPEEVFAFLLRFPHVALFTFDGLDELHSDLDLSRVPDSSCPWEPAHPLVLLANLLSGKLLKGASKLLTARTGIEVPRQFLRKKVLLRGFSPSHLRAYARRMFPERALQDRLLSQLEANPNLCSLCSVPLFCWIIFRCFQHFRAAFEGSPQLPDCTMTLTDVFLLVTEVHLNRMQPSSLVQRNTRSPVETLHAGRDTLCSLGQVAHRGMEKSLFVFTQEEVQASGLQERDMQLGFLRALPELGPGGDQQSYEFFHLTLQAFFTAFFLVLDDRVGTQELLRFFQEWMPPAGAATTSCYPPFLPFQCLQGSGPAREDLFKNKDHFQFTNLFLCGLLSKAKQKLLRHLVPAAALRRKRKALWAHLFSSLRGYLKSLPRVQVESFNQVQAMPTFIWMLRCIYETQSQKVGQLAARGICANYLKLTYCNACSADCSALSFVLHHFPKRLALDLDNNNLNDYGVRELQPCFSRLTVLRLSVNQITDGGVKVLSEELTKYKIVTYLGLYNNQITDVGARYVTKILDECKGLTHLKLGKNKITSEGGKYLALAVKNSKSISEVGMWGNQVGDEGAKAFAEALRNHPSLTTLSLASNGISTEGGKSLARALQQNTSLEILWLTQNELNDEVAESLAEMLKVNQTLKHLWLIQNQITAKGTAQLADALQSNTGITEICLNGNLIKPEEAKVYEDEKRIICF

HEK293 [12] = experiment: cells; conditions: Homo sapiens
[13] = target: Dual specificity protein kinase CLK1 (Homo sapiens, UniProt P49759); experiment: inhibition of human CLK1 activity – biochemical, cherry-picked samples, selectivity assay for Dyrk1A inhibitor project, dose response (AID 588811)
HEK293 [14] = experiment: cells; assay type: functional, cell-based; conditions: Homo sapiens; remark: listed apart in the source
[15] = target: T3, Nuclear receptor subfamily 0 group B member 1 (Homo sapiens, UniProt P51843); experiment: Luminescence-based cell-based high throughput dose response assay for inhibitors of the orphan nuclear receptor subfamily 0, group B, member 1 (DAX1; NR0B1). [Related pubchem assays (depositor defined):AID504766, AID504790]; assay type: functional
T3 sequence (P51843 whole entry): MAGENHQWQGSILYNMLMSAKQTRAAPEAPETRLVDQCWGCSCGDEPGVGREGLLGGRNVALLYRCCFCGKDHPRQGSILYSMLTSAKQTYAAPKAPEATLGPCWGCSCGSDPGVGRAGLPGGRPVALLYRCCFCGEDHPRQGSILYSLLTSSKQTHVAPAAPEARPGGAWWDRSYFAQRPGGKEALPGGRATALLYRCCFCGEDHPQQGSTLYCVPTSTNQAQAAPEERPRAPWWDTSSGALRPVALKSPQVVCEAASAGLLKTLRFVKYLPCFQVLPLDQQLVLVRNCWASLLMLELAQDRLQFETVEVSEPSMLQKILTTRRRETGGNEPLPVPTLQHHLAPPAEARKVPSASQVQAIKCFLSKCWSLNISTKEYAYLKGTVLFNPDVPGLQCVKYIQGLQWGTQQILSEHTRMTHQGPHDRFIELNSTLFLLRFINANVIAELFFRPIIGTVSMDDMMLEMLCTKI

[16] = target: Ras and Rab interactor 1/Tyrosine-protein kinase ABL1 (Homo sapiens, UniProt P00519+Q13671); assay type: functional;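 also: biochemical TR-FRET dose-response test measuring inhibition of binding between Rin1 and Abl proteins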
HEK293 [17] = experiment: cells; conditions: Homo sapiens; remark: listed apart in the source
HEK293 [18] = experiment: cells; conditions: Homo sapiens; remark: listed apart in the source

Chain of Ras and Rab interactor 1/Tyrosine-protein kinase ABL1 (P00519 whole entry): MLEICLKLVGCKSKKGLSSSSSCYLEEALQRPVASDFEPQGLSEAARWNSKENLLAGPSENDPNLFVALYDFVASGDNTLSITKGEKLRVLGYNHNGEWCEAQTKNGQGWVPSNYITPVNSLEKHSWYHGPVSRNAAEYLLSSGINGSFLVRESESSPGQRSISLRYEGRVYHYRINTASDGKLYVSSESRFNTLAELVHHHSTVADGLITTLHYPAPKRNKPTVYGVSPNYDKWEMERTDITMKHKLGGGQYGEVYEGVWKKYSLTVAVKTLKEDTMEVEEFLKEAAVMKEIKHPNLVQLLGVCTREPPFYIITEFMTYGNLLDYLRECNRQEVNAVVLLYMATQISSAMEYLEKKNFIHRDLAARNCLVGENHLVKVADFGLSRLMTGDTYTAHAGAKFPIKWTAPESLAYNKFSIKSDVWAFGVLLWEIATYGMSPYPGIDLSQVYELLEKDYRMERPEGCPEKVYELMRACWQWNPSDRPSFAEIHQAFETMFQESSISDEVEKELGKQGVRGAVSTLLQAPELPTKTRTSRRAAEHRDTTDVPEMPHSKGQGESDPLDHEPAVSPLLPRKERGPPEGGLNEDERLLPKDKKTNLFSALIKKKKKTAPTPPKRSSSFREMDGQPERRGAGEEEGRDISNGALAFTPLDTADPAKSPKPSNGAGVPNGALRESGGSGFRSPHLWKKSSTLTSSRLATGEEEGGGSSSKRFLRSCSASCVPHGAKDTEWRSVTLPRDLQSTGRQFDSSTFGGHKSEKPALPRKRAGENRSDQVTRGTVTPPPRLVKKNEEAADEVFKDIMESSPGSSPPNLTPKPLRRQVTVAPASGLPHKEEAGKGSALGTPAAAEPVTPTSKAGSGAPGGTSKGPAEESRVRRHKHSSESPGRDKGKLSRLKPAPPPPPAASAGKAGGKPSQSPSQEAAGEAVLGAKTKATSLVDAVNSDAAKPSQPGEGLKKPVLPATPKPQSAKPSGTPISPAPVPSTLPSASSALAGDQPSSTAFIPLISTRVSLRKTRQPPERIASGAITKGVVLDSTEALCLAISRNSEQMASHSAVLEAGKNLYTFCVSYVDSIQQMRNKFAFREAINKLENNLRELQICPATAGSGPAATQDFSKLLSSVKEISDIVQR
Chain of Ras and Rab interactor 1/Tyrosine-protein kinase ABL1 (Q13671 whole entry): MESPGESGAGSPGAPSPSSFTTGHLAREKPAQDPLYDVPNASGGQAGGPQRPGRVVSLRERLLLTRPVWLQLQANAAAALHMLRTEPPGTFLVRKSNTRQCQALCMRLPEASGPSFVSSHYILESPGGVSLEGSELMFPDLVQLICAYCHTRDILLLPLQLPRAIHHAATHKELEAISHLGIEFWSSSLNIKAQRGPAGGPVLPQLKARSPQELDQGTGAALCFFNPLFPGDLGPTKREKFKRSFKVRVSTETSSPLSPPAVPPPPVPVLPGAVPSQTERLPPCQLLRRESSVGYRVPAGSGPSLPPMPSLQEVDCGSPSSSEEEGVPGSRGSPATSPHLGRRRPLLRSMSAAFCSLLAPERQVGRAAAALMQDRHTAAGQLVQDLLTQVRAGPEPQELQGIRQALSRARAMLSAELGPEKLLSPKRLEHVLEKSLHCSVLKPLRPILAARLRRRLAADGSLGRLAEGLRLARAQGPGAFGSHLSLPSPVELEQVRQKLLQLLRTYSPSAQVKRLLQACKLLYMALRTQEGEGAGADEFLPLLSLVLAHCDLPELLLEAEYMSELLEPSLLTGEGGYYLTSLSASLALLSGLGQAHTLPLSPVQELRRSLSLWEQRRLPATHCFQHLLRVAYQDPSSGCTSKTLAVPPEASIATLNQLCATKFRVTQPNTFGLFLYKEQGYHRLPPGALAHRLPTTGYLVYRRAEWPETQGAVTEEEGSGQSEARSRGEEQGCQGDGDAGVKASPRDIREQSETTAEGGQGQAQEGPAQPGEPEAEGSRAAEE
Chain of Nucleotide-binding oligomerization domain-containing protein 2 (Q9HC29 whole entry, the tested form may be a part): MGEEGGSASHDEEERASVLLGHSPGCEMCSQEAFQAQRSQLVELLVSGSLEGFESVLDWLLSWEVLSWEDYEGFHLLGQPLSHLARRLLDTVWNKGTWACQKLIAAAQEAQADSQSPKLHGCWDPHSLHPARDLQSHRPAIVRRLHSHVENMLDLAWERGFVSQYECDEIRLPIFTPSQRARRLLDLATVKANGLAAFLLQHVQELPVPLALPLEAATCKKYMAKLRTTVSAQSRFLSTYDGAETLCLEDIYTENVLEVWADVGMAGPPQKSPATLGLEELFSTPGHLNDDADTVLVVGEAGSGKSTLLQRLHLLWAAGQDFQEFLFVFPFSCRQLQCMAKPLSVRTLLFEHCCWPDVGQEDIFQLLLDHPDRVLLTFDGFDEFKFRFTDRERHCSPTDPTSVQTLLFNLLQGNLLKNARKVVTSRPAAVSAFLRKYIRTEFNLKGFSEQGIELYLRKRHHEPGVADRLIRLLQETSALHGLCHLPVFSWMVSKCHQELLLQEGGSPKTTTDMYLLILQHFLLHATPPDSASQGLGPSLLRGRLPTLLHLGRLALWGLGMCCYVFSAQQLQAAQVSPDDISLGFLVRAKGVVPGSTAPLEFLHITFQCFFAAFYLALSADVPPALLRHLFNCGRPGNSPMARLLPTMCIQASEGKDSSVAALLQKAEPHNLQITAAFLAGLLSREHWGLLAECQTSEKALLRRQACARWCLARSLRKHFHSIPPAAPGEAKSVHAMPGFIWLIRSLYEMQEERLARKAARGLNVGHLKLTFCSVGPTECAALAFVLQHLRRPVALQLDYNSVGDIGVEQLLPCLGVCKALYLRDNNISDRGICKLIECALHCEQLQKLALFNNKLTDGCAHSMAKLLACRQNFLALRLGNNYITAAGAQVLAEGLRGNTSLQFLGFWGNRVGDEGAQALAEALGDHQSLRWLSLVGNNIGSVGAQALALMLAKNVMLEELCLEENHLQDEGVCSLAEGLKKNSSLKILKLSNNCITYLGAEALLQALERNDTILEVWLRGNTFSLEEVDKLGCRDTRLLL
Chain of Tumor necrosis factor (P01375 whole entry, the tested form may be a part): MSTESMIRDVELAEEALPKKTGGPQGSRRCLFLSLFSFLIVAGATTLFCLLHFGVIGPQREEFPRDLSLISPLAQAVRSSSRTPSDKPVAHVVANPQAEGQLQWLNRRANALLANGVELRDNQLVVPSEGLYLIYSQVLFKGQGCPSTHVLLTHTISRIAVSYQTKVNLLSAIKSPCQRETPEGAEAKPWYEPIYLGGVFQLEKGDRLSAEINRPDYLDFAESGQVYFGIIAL
Chain of Dual specificity protein kinase CLK1 (P49759 whole entry): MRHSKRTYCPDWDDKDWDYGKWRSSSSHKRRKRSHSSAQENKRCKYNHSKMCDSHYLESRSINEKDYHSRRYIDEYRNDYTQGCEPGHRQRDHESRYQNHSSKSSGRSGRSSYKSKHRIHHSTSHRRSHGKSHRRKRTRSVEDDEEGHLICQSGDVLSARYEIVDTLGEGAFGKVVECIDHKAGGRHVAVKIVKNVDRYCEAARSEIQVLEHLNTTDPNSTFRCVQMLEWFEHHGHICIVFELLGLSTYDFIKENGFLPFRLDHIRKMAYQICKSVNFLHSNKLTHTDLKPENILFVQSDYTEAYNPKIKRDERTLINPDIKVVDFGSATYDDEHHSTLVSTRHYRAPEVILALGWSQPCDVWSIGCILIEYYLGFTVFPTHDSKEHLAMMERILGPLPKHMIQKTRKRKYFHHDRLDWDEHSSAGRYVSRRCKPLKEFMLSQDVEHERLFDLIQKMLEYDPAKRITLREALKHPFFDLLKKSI

**Q.** Which AC50 [1] does the source give for `CCN(CC)CCn1c(=N)n(CC(O)COc2cccc(C)c2)c2ccccc21` (stereo not given) here?
**A.** 4.39 µM (active)

**Q.** What about the AC50 [2] of the same compound?
**A.** 21.2 µM (active)

**Q.** And the AC50 [3]?
**A.** 7.45 µM (active)

**Q.** What about the EC50 [4] of the same compound?
**A.** 12.4 µM (active)

**Q.** For `C=CCC[C@H](Cc1ccc(F)cc1)C(=O)OC[C@@H](C)NC(=O)[C@H](CC=C)CC(=O)NCCO`, which AC50 (Escherichia coli) is on record?
**A.** > 150 µM (inactive)

**Q.** With `COc1ccc(CN(C)S(=O)(=O)c2nnc(NC(=O)c3cccc(F)c3)s2)cc1` as the compound, how does the EC50 (HEK293 [5]) read?
**A.** 1.8 µM (active)

**Q.** And the IC50 (HEK293 [6])?
**A.** 17.1 µM (active)

**Q.** And the IC50 (HEK293 [7])?
**A.** > 20 µM (inactive)

**Q.** And the EC50 [8]?
**A.** 12.7 µM (active)

**Q.** And the IC50 (HEK293 [9])?
**A.** 12.3 µM (inactive)

**Q.** And the IC50 (HEK293 [10])?
**A.** > 20 µM (inactive)

**Q.** And the IC50 (Tumor necrosis factor)?
**A.** 8.03 µM (active)

**Q.** What about the IC50 [11] of the same compound?
**A.** 6.74 µM (active)

**Q.** And the IC50 (HEK293 [12])?
**A.** > 20 µM (inactive)

**Q.** Which AC50 [13] does the source give for `c1nc(NCC2CCCO2)c2cc(-c3ccc4c(c3)OCO4)ccc2n1` (stereo not given) here?
**A.** 11.3 nM (active)

**Q.** Which IC50 (HEK293 [14]) does the source give for `CC1=C(C(=O)OCC2CCCO2)C(c2coc3ccc(Cl)cc3c2=O)C2=C(O)CCCC2=N1` (stereo not given) here?
**A.** > 67.5 µM (inactive)

**Q.** What about the IC50 [15] of the same compound?
**A.** > 67.5 µM (inactive)

**Q.** With `CC[C@]12c3[nH]c4ccc(OC)cc4c3CCN1C(=O)C(CC(=O)NCC13C[C@H]4C[C@@H](C1)C[C@@H](C3)C4)C[C@@H]2C(=O)N1CCN(C(=O)c2ccco2)CC1` (stereo not given in full) as the compound, how does the IC50 [16] read?
**A.** 4.2 µM (active)

**Q.** And the EC50 (HEK293 [17])?
**A.** > 59.6 µM (inactive)

**Q.** And the EC50 (HEK293 [18])?
**A.** > 59.6 µM (inactive)
